# PubChem BioAssay (NCI)
# Where “and” joins values, the source holds several entries; their conditions need not be identical. Equal entries are not always repeated.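 48-hour exposure; five concentrations; linearly interpolated endpoints. GI50 is the concentration that inhibits growth by half. TGI denotes the concentration required for complete inhibition of growth.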
# Experiments:
# Test in all cases: inhibition of tumour cell growth, NCI panel, 48 h
# COLO 205 colon = system: COLO 205 colon
# HOP-62 NSCLC = system: HOP-62 NSCLC
# K-562 leukemia = system: K-562 leukemia
# LOX IMVI melanoma = system: LOX IMVI melanoma
# MALME-3M melanoma = system: MALME-3M melanoma
# OVCAR-4 ovarian = system: OVCAR-4 ovarian
# RXF 393 renal = system: RXF 393 renal
# SF-268 CNS = system: SF-268 CNS
# SN12C renal = system: SN12C renal
# UO-31 renal = system: UO-31 renal
SMILES,GI50 (COLO 205 colon),TGI (COLO 205 colon),GI50 (HOP-62 NSCLC) [µM],TGI (HOP-62 NSCLC),GI50 (K-562 leukemia),TGI (K-562 leukemia),GI50 (LOX IMVI melanoma) [µM],TGI (LOX IMVI melanoma),GI50 (MALME-3M melanoma),TGI (MALME-3M melanoma),GI50 (OVCAR-4 ovarian),TGI (OVCAR-4 ovarian),GI50 (RXF 393 renal),TGI (RXF 393 renal),GI50 (SF-268 CNS) [µM],TGI (SF-268 CNS),GI50 (SN12C renal) [µM],TGI (SN12C renal),GI50 (UO-31 renal),TGI (UO-31 renal)
N#Cc1c(O)c2c(c(O)c1C#N)C(=O)c1ccccc1C2=O,1.78 µM,4.13 µM,3.44,10.5 µM,1.9 µM,6.63 µM,0.349,4.29 µM,0.475 µM,1.7 µM,1.43 µM,3.79 µM,1.86 µM,6.27 µM,2.8,16 µM,1.82,4.04 µM,2.3 µM,9.81 µM
CCOC(=O)c1cc(-c2ccc([N+](=O)[O-])cc2)n(-c2ccc(C(=O)O)c(O)c2)c1C,1.6 µM,3.84 µM,7.55,23.3 µM,3.82 µM,> 100 µM,2.85,11 µM,2.23 µM,12.5 µM,4.11 µM,19.7 µM,5.95 µM,20.3 µM,4.69,19.6 µM,6.73,22.6 µM,3.74 µM,18.3 µM
O=C(Cc1ccc(/C=C/C(=O)c2ncc[nH]2)cc1)Nc1ccc(Cl)cc1,3.01 µM,7.42 µM,3.19,8.78 µM,–,–,0.87,3.48 µM,6.24 µM,18.5 µM,4.11 µM,> 25 µM,3.05 µM,6.93 µM,1.65,> 25 µM,2.4,6.91 µM,1.69 µM,5.11 µM
O=C(O)CCCc1ccc(N(CCCl)CCCl)cc1,22.6 µM and 201 µM,45.9 µM and 271 µM and 333 µM,–,–,21.7 µM and 152 µM,88.5 µM and 462 µM and 625 µM,–,31.9 µM and 183 µM and 265 µM,10.3 µM and 97.8 µM,26.3 µM and 188 µM and 141 µM,24.7 µM and 185 µM,43.5 µM and 327 µM and 284 µM,9.53 µM and 57.7 µM,23 µM and 118 µM and 97.7 µM,4.91,23.7 µM and 220 µM and 169 µM,–,–,9.38 µM and 32 µM,34.7 µM and 272 µM and 56.2 µM
O=C(O)c1cc(S(=O)(=O)N=NC=C2c3ccccc3N(O)c3ccccc32)ccc1O,–,37.6 µM,–,37.5 µM,–,> 100 µM,–,26 µM,–,50.3 µM,–,19.8 µM,–,–,–,34.4 µM,–,> 100 µM,–,49.5 µM
COc1cc2c(c(OC)c1OC)-c1ccc(NCc3ccccc3)c(=O)cc1[C@@H](NC(C)=O)CC2,0.277 µM,0.638 µM,0.413,16.9 µM,0.381 µM,> 100 µM,0.444,14.9 µM,0.72 µM,40.2 µM,0.989 µM,45.9 µM,–,–,0.788,> 73.5 µM,0.629,45.3 µM,4.99 µM,44.9 µM
O=C1/C(=C/c2ccccc2)CN(C(=O)Oc2ccc(Cl)cc2)C/C1=C\c1ccccc1,–,9.53 µM,–,14.7 µM,–,5.79 µM,–,2.51 µM,–,26.7 µM,–,3.52 µM,–,4.14 µM,–,8.77 µM,–,3.88 µM,–,15.5 µM
O=C(N/N=C/c1cccc(O)c1O)N/N=C/c1cccc(O)c1O,–,> 100 µM,–,–,–,> 100 µM,–,> 100 µM,–,74.4 µM,–,> 100 µM,–,86.4 µM,–,> 100 µM,–,> 100 µM,–,36.8 µM
Cc1c(C(=O)/C=C/c2cccc3ccccc23)[n+](=O)c2ccccc2n1[O-],–,26.9 µM,–,29.6 µM,–,36.5 µM,–,20.6 µM,–,34.9 µM,–,15.7 µM,–,21.9 µM,–,29.3 µM,–,29.8 µM,–,31.2 µM
Cn1c(-c2nonc2N)nc2cnccc21,> 25 µM,> 25 µM,> 25,> 25 µM,> 25 µM,> 25 µM,> 25,> 25 µM,> 25 µM,> 25 µM,> 25 µM,> 25 µM,> 20.6 µM,> 25 µM,> 25,> 25 µM,> 25,> 25 µM,> 17.8 µM,> 25 µM
O=C(O)Cc1c[nH]c2ccc(F)cc12,–,> 100 µM,–,> 100 µM,–,> 100 µM,–,> 100 µM,–,–,–,> 100 µM,–,> 100 µM,–,–,–,> 100 µM,–,> 100 µM
O=c1c(Cl)c(Cl)cnn1-c1ccccc1,1.74 µM and 3.54 µM,3.62 µM and 7.92 µM,–,16.7 µM and 32.1 µM,2.13 µM,5.14 µM and 4.67 µM,–,3.26 µM and 4.03 µM,–,7.91 µM and 9.73 µM,–,3.95 µM and 2.38 µM,–,4.21 µM and 5.38 µM,–,15.7 µM and 25.6 µM,–,8.88 µM and 4.01 µM,–,8.91 µM and 7.47 µM
Cc1cc(C)nc(NS(=O)(=O)c2ccc(NC(=O)c3cccc4c(=O)c5ccccc5[nH]c34)cc2)n1,–,34.5 µM,–,56.7 µM,–,90.3 µM,–,31.8 µM,–,33.8 µM,–,43.3 µM,–,–,–,48.2 µM,–,32.8 µM,–,45.7 µM
COc1cc2c(cc1O)[C@H](Cc1ccc(Oc3cc(C[C@H]4c5cc(OC)c(OC)cc5CCN4C)ccc3OC)cc1)NCC2,–,49.5 µM,–,–,–,19.1 µM,–,22.4 µM,–,39.6 µM,–,27.1 µM,–,18.3 µM,–,23.7 µM,–,31.1 µM,–,21.2 µM
COC(=O)C(CC(=O)c1cc2c(cc1I)OCO2)Cc1cc(OC)c(OC)c(OC)c1I (stereo not drawn),–,> 100 µM,–,> 100 µM,–,> 100 µM,–,> 100 µM,–,> 100 µM,–,–,–,> 100 µM,–,> 100 µM,–,> 100 µM,–,–
CCOc1ccc2nc(NC(=O)/C(CC(=O)CC(C3=C(O)c4ccccc4CC3=O)c3ccccc3)=N\O)sc2c1 (stereo not drawn),–,> 100 µM,–,–,–,> 100 µM,–,> 100 µM,–,> 100 µM,–,> 100 µM,–,> 100 µM,–,> 100 µM,–,> 100 µM,–,> 100 µM
O=c1[nH]c(=O)n(C2CC(O)C(CO)O2)cc1C#Cc1c(F)c(F)c(F)c(F)c1F (stereo not drawn),–,> 100 µM,–,> 100 µM,–,> 100 µM,–,> 100 µM,–,> 100 µM,–,> 100 µM,–,–,–,> 100 µM,–,> 100 µM,–,> 100 µM
